Experimental data reported in patent US11878049B1, “Mitapivat therapy and modulators of cytochrome P450” (Agios Pharmaceuticals, Inc., priority 2019, dated 2024).

Experiments:
CYP2C19 = CYP2C19 (Homo sapiens, UniProt P33261); assay: CYP enzyme inhibition; type: in vitro ADME
[1] = Drug-drug interaction study Part 2: plasma PK after 50 mg mitapivat sulfate alone or with rifampin; type: in vivo, human; details: for Nominal time of peak arithmetic mean concentration: postdose; for Nominal time of peak arithmetic mean concentration / AUC(0-inf) / AUC(0-t) / Cmax: plasma; for Total exposure in the presence of rifampin compared to dosing of mitapivat sulfate alone: 50 mg mitapivat sulfate, 600 mg rifampin; for AUC(0-inf) / AUC(0-t) / Cmax: both sexes, human, healthy subjects; for AUC(0-inf): read-out: AUC0-inf, Geometric LSM; for AUC(0-t): read-out: AUC0-t, Geometric LSM; for Cmax: read-out: Cmax, Geometric LSM
Description: (§1) Twenty-eight (28) healthy, adult male and female (non-childbearing potential) subjects were enrolled in the study in total; 14 subjects in each study part (Parts 1 and 2). A minimum of 8 female subjects were enrolled in the study (i.e., a minimum of 4 female subjects per study part). Each subject participated in either Part 1 or Part 2, but not both.
On Day 1 of Treatment Period 1, a single oral dose of 50 mg mitapivat sulfate was administered. Serial blood samples for plasma assay of mitapivat and the Metabolite concentrations were collected from predose to 120 hours following administration of mitapivat sulfate. In Treatment Period 2, an oral dose of 600 mg rifampin was administered QD for 12 consecutive days (Day 1 through Day 12 of Treatment Period 2) with a single oral dose of 50 mg mitapivat sulfate coadministered on Day 8. Serial blood samples for plasma assay of mitapivat sulfate and the Metabolite concentrations were collected from predose to 120 hours following coadministration of mitapivat and rifampin on Day 8.
In Part 2, study drugs were administered with approximately 240 mL of water on all dosing days including the coadministration of mitapivat sulfate and rifampin on Day 8 of Treatment Period 2. Mitapivat sulfate and rifampin was administered following an overnight fast of at least 10 hours on Day 1 of Treatment Period 1 (mitapivat sulfate only) and Day 8 of Treatment Period 2 (both mitapivat sulfate and rifampin) and subjects remained fasted for 4 hours after dosing. On all other dosing days, rifampin was administered following a predose fast of at least 4 hours and subjects remained fasted for at least 2 hours after dosing. There was a washout period of 7 days between the mitapivat sulfate dose in Treatment Period 1 and the first itraconazole (Part 1) or rifampin (Part 2) dose in Treatment Period 2. All study drugs were consumed within 5 minutes for both Part 1 and Part 2.
Mitapivat sulfate (50 mg tablets) administered along with Rifampin (also referred to as Rifadin®, 300 mg capsules) is considered as the test arm in this study. Mitapivat sulfate (50 mg tablets) administered alone is considered as the reference arm in this study.
In Period 1, a single oral dose of 50 mg mitapivat sulfate was administered orally. In Period 2, subjects were administered 600 mg rifampin (2×300 mg capsules) QD on Day 1 to Day 12 inclusive, with 50 mg mitapivat sulfate (1×50 mg tablet) coadministered on Day 8. Study drugs were administered with approximately 240 mL of water on all dosing days including the coadministration of mitapivat sulfate and rifampin on Day 8 of Period 2.
(§2) In Parts 1 and 2, for mitapivat and the Metabolite, blood samples were obtained for all subjects to determine the plasma concentrations of mitapivat, and the Metabolite, before mitapivat sulfate dosing (0 hour) on Day 1 of Period 1 (Parts 1 and 2) and Day 5 (Part 1) or Day 8 (Part 2) of Period 2 at 0.5, 1, 1.5, 2, 3, 4, 5, 6, 8, 12, 16, 24, 48, 72, 96, and 120 hours postdose. Plasma concentrations of mitapivat and the Metabolite were determined using methods validated with respect to accuracy, precision, linearity, sensitivity, and specificity, with a lower limit of quantitation (LLOQ) of 0.5 ng/mL for both analytes. A noncompartmental PK approach was used to analyze individual plasma mitapivat and the Metabolite concentration time data (using Phoenix® WinNonlin® Version 7.0). The following PK parameters were calculated: AUC0-t, AUC0-inf, AUC0-24, AUC%extrap, Cmax, CL/F (mitapivat only), Tlast, Tmax, t½, and Vz/F (mitapivat only).
(§3) PK parameters were presented with a minimum of 3 significant figures. […]

[2] = Drug-drug interaction study Part 1: plasma PK after 20 mg mitapivat sulfate alone or with itraconazole; type: in vivo, human; details: for Total exposure in the presence of itraconazole compared to dosing of mitapivat sulfate alone: 20 mg mitapivat sulfate, 200 mg itraconazole; for AUC(0-inf) / AUC(0-t) / Cmax: both sexes, human, healthy subjects; for AUC(0-inf): read-out: AUC0-inf, Geometric LSM; for AUC(0-t): read-out: AUC0-t, Geometric LSM; for Cmax: read-out: Cmax, Geometric LSM
Description: as §1
On Day 1 of Treatment Period 1, a single oral dose of 20 mg mitapivat sulfate was administered. Serial blood samples for plasma assay of mitapivat concentrations and its CYP3A4 metabolite, referred to herein as the “Metabolite” (structure below),
[drawing 3] were collected from predose to 120 hours following administration of mitapivat sulfate. In Treatment Period 2, an oral dose of 200 mg itraconazole was administered once daily (QD) for 9 consecutive days (Day 1 through Day 9 of Treatment Period 2) with a single oral dose of 20 mg mitapivat sulfate coadministered on Day 5. Serial blood samples for plasma assay of mitapivat and the Metabolite concentrations were collected from predose to 120 hours following coadministration of mitapivat sulfate and itraconazole on Day 5.
In Treatment Period 1, mitapivat sulfate was administered orally with approximately 240 mL of water. In Treatment Period 2, on Days 1 to 4, itraconazole was administered alone immediately followed by approximately 220 mL of water, and on Day 5, itraconazole was administered first (no water) and was immediately followed by mitapivat sulfate administration with approximately 220 mL of water. Study drugs (mitapivat sulfate and itraconazole) were administered following an overnight fast of at least 10 hours on Day 1 of Treatment Period 1 (mitapivat sulfate only) and Day 5 of Treatment Period 2 (mitapivat sulfate and itraconazole), and subjects remained fasted for 4 hours after dosing. On all other dosing days, itraconazole was administered following a predose fast of at least 4 hours and subjects remained fasted for at least 2 hours after dosing.
Mitapivat sulfate (20 mg tablets) administered along with Itraconazole (also referred to as Sporanox®, 10 mg/mL oral solution, is considered as the test arm in this study. Mitapivat sulfate administered alone is considered as the reference arm in this study. In Period 1, a single oral dose of 20 mg mitapivat sulfate was administered orally with approximately 240 mL of water. In Period 2, on Day 5 (coadministration of itraconazole and mitapivat sulfate), 200 mg itraconazole (20 mL of 10 mg/mL oral solution) was administered first (no water) and was immediately followed by 20 mg mitapivat sulfate (1×20 mg tablet) administration with approximately 220 mL of water. On all other dosing days, itraconazole was administered alone immediately followed by approximately 220 mL of water. Each subject received 2 doses of mitapivat sulfate and 9 doses of itraconazole in Part 1.
as §2, §3

CYP3A4/5 = assay: CYP-enzyme phenotyping using human liver microsomes and recombinant CYP enzymes; type: in vitro ADME
CYP2C9 = CYP2C9 (Homo sapiens, UniProt P11712); assay: as above; type: in vitro ADME; parameters: CYP-enzyme phenotyping using human liver microsomes and recombinant CYP enzymes; from tissue; host or cells: human liver microsomes
[3] = 50 mg mitapivat sulfate coadministered with 600 mg rifampin (Period 2)
[4] = 50 mg mitapivat sulfate given alone (Period 1)
[5] = 50 mg mitapivat sulfate oral alone (Reference)
[6] = 50 mg mitapivat sulfate oral on Day 8 + 600 mg rifampin QD Days 1-12 (Test)
[7] = plasma, 20 mg mitapivat sulfate oral alone (Reference)
[8] = plasma, 20 mg mitapivat sulfate oral on Day 5 + 200 mg itraconazole QD Days 1-9 (Test)

CYP2C9, sequence (P11712 whole entry): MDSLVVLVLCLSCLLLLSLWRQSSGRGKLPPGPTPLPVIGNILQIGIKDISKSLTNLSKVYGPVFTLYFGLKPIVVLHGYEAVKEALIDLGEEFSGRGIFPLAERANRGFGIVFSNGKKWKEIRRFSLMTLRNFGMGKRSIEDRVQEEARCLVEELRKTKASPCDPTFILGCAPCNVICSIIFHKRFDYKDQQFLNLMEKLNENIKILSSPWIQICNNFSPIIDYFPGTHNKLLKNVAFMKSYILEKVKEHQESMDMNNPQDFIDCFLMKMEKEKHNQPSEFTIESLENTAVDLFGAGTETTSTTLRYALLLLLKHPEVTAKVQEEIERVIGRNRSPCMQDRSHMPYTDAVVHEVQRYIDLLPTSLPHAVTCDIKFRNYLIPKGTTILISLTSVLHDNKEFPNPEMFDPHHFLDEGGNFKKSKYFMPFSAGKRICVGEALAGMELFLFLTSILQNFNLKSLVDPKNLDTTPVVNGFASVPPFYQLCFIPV
CYP2C19, sequence (P33261 whole entry): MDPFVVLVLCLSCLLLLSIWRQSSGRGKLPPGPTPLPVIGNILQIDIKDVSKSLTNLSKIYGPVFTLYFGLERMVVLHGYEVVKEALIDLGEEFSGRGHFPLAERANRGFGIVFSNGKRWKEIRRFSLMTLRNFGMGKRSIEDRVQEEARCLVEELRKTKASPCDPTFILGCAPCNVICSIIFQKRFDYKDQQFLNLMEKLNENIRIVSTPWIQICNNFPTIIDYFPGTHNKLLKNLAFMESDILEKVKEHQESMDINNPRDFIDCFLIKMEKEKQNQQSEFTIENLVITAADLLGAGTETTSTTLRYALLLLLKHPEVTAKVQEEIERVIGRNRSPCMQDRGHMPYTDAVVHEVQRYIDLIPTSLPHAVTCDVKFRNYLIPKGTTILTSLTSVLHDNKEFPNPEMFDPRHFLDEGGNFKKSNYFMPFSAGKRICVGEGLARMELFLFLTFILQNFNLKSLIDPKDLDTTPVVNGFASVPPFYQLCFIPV

Row | Inhibition of CYP2C19 (CYP2C19) | Nominal time of peak arithmetic mean concentration [1, 3] [h] | Nominal time of peak arithmetic mean concentration [1, 4] | Total exposure in the presence of rifampin compared to dosing of mitapivat sulfate alone [1] | AUC(0-inf) [1, 5] [ng·h/mL] | AUC(0-t) [1, 5] [ng·h/mL] | Cmax [1, 5] [ng/mL] | AUC(0-inf) [1, 6] [ng·h/mL] | AUC(0-t) [1, 6] [ng·h/mL] | Cmax [1, 6] [ng/mL] | Total exposure in the presence of itraconazole compared to dosing of mitapivat sulfate alone [2] | AUC(0-inf) [2, 7] [ng·h/mL] | AUC(0-t) [2, 7] [ng·h/mL] | Cmax [2, 7] [ng/mL] | AUC(0-inf) [2, 8] [ng·h/mL] | AUC(0-t) [2, 8] [ng·h/mL] | Cmax [2, 8] [ng/mL] | Share of metabolism by CYP3A4/5 (primarily metabolized by) (CYP3A4/5) [%] | Contribution of CYP2C9 to metabolism (CYP2C9) | Delay in time to peak concentration ([2]; coadministered with itraconazole compared to administered alone, plasma) | SMILES
1 | mild inhibitor | ~1 | approximately 2 hour | decreased | 663 | 623 | 53.8 | 245 | 230 | 64.5 | increased | 216 | 197 | 18.8 | 339 | 300 | 9.11 | – | – | – | O=C(c1ccc(NS(=O)(=O)c2cccc3cccnc23)cc1)N1CCNCC1 [Metabolite]
2 | – | ~0.5 | approximately 1 hour | decreased | 5680 | 5560 | 1260 | 496 | 486 | 292 | increased | 1940 | 1880 | 412 | 9480 | 8860 | 704 | > 90 | minor contributions | approximately 2 hours | O=C(c1ccc(NS(=O)(=O)c2cccc3cccnc23)cc1)N1CCN(CC2CC2)CC1 [Mitapivat, N-(4-(4-(cyclopropylmethyl)piperazine-1-carbonyl)phenyl)quinoline-8-sulfonamide]
